Measurements published in patent publication US20220009920A1 (GB005, Inc., priority 2020, published 2022).

Columns and labels:
Experiment in all cases: Large panel kinase profiling
Assay type in all cases: biochemical
Settings in all cases: 1 μM test article, 1 mM ATP
ABL2 = ABL2 (Homo sapiens, UniProt P42684)
Outline: (§1)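 Reactions contain 1 mM ATP and 1 μM test article; the CSox peptide sensor reports phosphorylation as fluorescence gain. Temperature is held at 30° C. while signal (360 nm excitation, 485 nm emission) is recorded every 1 min.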

CHEK1/CHK1 = target: T1, CHEK1/CHK1 (Homo sapiens, UniProt O14757)
T1 construct: AssayQuant Technologies, Inc. (ran the panel)
T1 sequence (O14757 1-476): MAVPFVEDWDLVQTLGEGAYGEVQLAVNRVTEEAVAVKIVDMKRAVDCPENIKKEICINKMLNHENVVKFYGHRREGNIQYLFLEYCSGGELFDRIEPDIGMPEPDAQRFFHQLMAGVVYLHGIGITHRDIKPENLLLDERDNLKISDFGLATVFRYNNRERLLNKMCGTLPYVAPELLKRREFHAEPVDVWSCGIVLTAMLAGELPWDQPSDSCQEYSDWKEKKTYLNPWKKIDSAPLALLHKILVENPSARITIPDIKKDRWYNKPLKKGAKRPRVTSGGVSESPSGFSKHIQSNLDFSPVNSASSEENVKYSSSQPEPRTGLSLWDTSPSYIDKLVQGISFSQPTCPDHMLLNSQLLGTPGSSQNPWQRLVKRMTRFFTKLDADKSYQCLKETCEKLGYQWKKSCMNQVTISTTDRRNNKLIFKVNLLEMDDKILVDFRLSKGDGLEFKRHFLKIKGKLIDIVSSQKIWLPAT
Outline: as §1

CSNK2A2/CK2A2 = target: T2, CSNK2A2/CK2A2 (Homo sapiens, UniProt P19784)
T2 construct: AssayQuant Technologies, Inc. (service laboratory)
T2 sequence (P19784 whole entry): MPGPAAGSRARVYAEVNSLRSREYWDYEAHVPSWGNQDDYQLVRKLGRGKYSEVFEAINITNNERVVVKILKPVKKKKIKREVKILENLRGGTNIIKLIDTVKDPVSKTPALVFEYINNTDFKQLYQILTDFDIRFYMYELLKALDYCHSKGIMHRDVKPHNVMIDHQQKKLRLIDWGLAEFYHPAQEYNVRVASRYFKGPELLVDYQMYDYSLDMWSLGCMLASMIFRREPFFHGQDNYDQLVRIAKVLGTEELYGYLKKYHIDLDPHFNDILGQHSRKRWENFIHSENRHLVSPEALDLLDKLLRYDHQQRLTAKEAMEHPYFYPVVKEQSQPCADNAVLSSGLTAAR
Outline: as §1

EPHA1 = target: T3, EPHA1 (Homo sapiens, UniProt P21709)
T3 sequence (P21709 26-976): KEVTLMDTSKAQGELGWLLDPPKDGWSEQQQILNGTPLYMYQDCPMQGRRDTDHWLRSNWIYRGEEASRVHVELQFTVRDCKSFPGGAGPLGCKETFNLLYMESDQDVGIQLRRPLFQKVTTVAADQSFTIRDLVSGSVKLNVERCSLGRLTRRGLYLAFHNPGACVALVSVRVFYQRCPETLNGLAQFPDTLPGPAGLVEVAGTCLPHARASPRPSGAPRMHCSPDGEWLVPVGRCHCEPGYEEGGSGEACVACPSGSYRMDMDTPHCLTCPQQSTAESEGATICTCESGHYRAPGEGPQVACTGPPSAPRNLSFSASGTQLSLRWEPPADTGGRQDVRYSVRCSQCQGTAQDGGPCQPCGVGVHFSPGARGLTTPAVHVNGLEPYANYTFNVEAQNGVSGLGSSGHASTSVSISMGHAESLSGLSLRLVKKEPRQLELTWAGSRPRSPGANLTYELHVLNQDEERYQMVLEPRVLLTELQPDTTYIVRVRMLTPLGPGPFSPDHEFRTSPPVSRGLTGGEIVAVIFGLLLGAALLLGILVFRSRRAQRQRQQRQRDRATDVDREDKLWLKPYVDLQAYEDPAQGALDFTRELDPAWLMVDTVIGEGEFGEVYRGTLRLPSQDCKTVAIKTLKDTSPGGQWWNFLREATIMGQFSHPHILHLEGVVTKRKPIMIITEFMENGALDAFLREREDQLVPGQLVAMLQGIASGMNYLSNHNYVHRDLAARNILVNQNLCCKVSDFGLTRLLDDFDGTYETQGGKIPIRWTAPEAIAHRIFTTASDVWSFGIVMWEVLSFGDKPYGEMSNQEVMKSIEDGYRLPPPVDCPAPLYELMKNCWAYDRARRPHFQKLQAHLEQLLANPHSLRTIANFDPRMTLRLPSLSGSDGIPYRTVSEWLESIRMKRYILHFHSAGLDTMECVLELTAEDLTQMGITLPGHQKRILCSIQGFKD
Outline: as §1

GRK7 = target: T4, GRK7 (Homo sapiens, UniProt Q8WTQ7)
T4 construct: AssayQuant Technologies, Inc. (service provider)
T4 sequence (Q8WTQ7 1-553): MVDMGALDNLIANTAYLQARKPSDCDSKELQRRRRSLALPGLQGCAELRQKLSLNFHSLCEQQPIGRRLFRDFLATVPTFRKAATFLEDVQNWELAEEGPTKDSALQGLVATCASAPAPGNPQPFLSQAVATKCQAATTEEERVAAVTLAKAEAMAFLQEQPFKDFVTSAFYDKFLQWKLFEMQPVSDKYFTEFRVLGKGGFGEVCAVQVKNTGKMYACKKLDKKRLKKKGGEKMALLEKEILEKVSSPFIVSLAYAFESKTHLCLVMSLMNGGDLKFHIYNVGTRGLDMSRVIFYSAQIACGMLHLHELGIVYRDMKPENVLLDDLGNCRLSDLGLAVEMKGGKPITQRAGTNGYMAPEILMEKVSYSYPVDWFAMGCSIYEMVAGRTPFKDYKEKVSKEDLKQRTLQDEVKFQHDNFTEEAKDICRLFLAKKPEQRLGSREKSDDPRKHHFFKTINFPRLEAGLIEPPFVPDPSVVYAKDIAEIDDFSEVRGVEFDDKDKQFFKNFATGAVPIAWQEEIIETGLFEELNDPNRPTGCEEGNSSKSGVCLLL
Outline: as §1

JAK1(JH1) = target: T5, JAK1(JH1) (Homo sapiens, UniProt P23458)
T5 construct: JAK1(JH1)
T5 sequence (P23458 875-1153 limits assumed, species assumed): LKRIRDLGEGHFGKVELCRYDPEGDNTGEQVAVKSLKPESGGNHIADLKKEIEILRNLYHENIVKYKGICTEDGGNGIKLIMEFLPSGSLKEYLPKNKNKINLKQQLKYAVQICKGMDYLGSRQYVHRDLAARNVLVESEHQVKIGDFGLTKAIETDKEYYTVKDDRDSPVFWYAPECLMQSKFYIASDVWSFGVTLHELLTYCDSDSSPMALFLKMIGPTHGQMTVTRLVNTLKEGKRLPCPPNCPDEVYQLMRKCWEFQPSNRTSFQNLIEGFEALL
Outline: as §1

LYNA = LYNA (Homo sapiens, UniProt P07948)
LYNA, sequence (P07948 whole entry, species assumed): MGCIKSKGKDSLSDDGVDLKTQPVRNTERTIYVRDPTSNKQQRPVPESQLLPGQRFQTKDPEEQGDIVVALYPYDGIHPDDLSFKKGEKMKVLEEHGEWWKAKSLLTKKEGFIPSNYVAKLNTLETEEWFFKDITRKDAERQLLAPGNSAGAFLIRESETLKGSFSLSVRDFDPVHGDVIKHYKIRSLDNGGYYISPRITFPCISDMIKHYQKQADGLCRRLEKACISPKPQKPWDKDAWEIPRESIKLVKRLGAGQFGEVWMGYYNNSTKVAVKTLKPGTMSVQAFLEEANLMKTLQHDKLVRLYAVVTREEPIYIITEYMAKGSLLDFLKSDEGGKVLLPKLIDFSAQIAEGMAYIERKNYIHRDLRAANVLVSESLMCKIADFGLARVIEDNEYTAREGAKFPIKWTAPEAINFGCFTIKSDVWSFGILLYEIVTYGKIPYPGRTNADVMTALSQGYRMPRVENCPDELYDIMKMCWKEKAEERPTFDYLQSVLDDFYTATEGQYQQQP
Outline: as §1

MAPK1/ERK2 = target: T6, MAPK1/ERK2 (Homo sapiens, UniProt P28482)
T6 construct: AssayQuant Technologies, Inc. (service provider)
T6 sequence (P28482 whole entry): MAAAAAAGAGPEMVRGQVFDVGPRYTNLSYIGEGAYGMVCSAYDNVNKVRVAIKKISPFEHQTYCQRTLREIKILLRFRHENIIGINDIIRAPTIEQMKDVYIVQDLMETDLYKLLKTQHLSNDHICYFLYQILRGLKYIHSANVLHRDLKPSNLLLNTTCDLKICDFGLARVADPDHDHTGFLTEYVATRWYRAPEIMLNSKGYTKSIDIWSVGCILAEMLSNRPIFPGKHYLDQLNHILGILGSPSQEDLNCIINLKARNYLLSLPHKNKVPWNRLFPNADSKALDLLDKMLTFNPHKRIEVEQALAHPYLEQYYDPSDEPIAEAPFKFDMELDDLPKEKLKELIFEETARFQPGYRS
Outline: as §1

MAPK7/ERK5 = target: T7, MAPK7/ERK5 (Homo sapiens, UniProt Q13164)
T7 construct: AssayQuant Technologies, Inc. (service provider)
T7 sequence (Q13164 whole entry): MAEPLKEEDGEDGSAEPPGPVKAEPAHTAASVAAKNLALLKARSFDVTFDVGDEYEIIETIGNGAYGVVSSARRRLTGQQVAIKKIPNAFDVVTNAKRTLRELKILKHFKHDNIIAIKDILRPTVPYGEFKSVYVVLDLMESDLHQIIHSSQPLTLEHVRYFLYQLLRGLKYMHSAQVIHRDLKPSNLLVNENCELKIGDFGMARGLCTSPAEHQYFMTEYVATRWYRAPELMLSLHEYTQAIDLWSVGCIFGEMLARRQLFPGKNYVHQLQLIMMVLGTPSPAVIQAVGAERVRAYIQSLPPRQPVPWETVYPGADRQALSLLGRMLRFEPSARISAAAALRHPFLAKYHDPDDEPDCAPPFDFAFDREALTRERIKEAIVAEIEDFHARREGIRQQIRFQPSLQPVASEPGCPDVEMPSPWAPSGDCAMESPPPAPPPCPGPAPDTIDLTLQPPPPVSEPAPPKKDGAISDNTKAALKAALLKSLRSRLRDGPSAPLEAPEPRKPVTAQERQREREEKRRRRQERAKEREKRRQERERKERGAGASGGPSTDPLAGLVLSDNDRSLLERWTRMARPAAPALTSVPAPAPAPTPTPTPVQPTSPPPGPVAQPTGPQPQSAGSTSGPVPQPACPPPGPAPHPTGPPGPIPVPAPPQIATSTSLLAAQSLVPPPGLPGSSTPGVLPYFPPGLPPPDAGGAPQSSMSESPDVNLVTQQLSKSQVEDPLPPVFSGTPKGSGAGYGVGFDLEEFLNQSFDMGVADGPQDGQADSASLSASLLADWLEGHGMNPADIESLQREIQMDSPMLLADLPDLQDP
Outline: as §1

PRKCH/PKCH = PRKCH/PKCH (Homo sapiens, UniProt P24723)
PRKCH/PKCH, sequence (P24723 whole entry): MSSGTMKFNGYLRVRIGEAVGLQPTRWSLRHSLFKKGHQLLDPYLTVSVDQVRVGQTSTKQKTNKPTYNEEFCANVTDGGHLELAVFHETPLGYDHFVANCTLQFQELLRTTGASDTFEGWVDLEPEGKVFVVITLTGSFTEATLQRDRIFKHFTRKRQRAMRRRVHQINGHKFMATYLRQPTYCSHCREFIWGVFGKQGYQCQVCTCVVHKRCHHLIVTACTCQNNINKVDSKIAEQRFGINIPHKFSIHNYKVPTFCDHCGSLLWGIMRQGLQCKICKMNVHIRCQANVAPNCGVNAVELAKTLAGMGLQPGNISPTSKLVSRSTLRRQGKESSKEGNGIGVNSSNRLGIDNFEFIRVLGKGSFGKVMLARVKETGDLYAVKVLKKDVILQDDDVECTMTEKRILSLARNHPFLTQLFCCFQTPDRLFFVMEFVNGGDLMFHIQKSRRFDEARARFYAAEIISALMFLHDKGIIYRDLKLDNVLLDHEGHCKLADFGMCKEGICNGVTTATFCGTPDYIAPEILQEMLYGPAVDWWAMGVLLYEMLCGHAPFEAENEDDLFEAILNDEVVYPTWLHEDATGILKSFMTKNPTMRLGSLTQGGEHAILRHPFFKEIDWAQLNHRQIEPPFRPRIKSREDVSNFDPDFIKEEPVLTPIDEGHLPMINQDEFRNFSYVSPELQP
Outline: as §1

ABL2, sequence (P42684 whole entry): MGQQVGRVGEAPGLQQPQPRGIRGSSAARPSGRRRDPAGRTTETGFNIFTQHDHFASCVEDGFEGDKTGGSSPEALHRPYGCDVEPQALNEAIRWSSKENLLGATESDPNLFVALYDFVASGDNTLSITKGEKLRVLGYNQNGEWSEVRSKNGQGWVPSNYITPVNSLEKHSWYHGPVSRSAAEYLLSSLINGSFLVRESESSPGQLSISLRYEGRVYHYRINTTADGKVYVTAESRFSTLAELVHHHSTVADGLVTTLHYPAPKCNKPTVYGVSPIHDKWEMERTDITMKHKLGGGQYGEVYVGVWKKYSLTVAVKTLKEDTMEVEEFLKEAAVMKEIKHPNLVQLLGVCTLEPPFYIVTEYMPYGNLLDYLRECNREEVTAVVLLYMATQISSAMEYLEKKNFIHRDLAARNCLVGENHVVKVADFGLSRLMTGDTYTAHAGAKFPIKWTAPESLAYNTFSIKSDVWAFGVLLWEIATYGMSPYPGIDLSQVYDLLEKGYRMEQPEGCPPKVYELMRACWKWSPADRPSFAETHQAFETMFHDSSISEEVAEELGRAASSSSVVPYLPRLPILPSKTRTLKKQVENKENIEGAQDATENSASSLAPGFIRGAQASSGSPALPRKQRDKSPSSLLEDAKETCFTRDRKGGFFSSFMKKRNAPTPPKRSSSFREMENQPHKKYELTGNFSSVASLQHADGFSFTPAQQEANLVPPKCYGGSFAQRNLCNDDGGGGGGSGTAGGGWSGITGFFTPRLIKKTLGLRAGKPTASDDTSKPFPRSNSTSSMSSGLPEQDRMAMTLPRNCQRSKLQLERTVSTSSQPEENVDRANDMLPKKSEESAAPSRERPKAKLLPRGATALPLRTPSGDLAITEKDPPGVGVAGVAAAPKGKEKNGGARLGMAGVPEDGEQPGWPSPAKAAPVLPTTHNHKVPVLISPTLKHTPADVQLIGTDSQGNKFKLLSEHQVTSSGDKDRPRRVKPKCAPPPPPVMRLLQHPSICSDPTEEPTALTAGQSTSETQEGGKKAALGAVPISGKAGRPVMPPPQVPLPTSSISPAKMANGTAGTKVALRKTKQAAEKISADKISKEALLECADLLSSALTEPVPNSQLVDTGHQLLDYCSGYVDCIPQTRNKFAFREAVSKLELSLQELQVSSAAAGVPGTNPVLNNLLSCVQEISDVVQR

| SMILES | inhibition at 1 µM (ABL2) [%] | inhibition at 1 µM (CHEK1/CHK1) [%] | inhibition at 1 µM (CSNK2A2/CK2A2) [%] | inhibition at 1 µM (EPHA1) [%] | inhibition at 1 µM (GRK7) [%] | inhibition at 1 µM (JAK1(JH1)) [%] | inhibition at 1 µM (LYNA) [%] | inhibition at 1 µM (MAPK1/ERK2) [%] | inhibition at 1 µM (MAPK7/ERK5) [%] | inhibition at 1 µM (PRKCH/PKCH) [%] |
| --- | --- | --- | --- | --- | --- | --- | --- | --- | --- | --- |
| C=CC(=O)N1CCCC(c2c(F)cc(C(N)=O)c3[nH]c4c(c23)CCCCC4)C1 (single isomer, unassigned) [Compound 5-6] | -29.7 | -34.8 | 11.4 | 3.7 | 1.3 | 1.3 | -2.9 | -4.4 | -0.7 | -3.6 |
| C=CC(=O)N1CCC[C@@H](c2c(F)cc(C(N)=O)c3[nH]c4c(c23)CC2(CC4)CC2)C1 [Compound 6-2, (S)-5-(1-acryloylpiperidin-3-yl)-6-fluoro-1,2,4,9-tetrahydrospiro[carbazole-3,1′-cyclopropane]-8-carboxamide] | -1.3 | -23.1 | -141 | 22 | 10.9 | 25.6 | 36.4 | -3.8 | 9.4 | 5.3 |
| C=CC(=O)N1CCC[C@@H](c2c(F)cc(C(N)=O)c3[nH]c4c(c23)CCC4)C1 [Compound 10-2, (S)-8-(1-acryloylpiperidin-3-yl)-7-fluoro-1,2,3,4-tetrahydrocyclo-penta[b]indole-5-carboxamide] | 1.9 | 6.8 | -144 | 8.5 | -33 | 1.9 | 22.8 | -8.8 | -4.3 | -7.9 |
